# pIC50: −log10 of the molar value. Calls of active or inactive are those of the source.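 Rule for the calls: active = inhibition over 29.93%, a cutoff 3 SD above the screen mean, later confirmed by dose response; inconclusive = over the cutoff but never tested in dose response; inactive = the rest.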
# What was measured:
# [1] = decrease of PhoP-driven GFP reporter signal, S. Typhimurium, dose response, PhoP regulon inhibitor project, purified and synthesized compounds, set 2 (AID 2831); conditions: S. Typhimurium PhoP-regulated promoter-GFP reporter, fluorescence, 4 h; at 150 µM (top of the series)
# [2] = system: S. Typhimurium PhoP-regulated promoter-GFP reporter, fluorescence, 4 h; experiment: as above
pIC50 [2],SMILES,inhibition [1]
4.16,O=[N+]([O-])c1ccc(CNC2CCCc3ccccc32)cc1 (stereo unspecified),–
> 6.82,CCCCn1c(NS(=O)(=O)c2ccc(C)cc2)c(S(=O)(=O)c2ccccc2)c2nc3ccccc3nc21,–
> 6.82,N#C/C(=C\c1ccc[nH]1)C(=O)NC1CC1,–
4.07,COc1c(N2CCN(C(=S)NCc3ccccc3)C(C)C2)c(F)cc2c(=O)c(C(=O)O)cn(C3CC3)c12 (stereo unspecified),–
4.12,S=C(NCc1ccc(Cl)cc1)Nc1ccncc1,–
4.37,CCn1cc(C(=O)O)c(=O)c2cc(F)c(N3CCN(C(=S)NC(=O)c4ccccc4Cl)CC3)cc21,–
5.42,CCn1cc(C(=O)O)c(=O)c2cc(F)c(N3CCN(C(=S)Nc4ccccc4C(F)(F)F)CC3)cc21,–
4.05,O=C1C2=C(Nc3ccccc3SC2c2ccccc2Br)c2ccccc21 (stereo unspecified),–
3.85,O=C1C2=C(Nc3ccccc3SC2c2ccccc2Cl)c2ccccc21 (stereo unspecified),–
> 6.82,O=C(O)c1cn(-c2ccc(F)cc2)c2cc(Cl)c(F)cc2c1=O,–
> 6.82,CN1CCc2nc(SCC(=O)Nc3cccc(F)c3)c(C#N)c(-c3cccs3)c2C1,–
> 6.82,O=C1c2ccccc2C2=Nc3ccccc3SC(c3ccccc3F)C12 (stereo unspecified),–
3.95,Cc1ccc(Nc2cc(C)c3c(O)cccc3n2)cc1C,–
3.98,CCn1cc(C(=O)O)c(=O)c2cc(F)c(N3CCN(C(=S)NC(=O)c4ccccc4F)CC3)cc21,–
> 6.82,CCCCn1c(NS(=O)(=O)c2ccccc2)c(S(=O)(=O)c2ccc(C)cc2)c2nc3ccccc3nc21,–
> 6.82,CN(C)CCCN(C(=O)CCc1ccccc1)c1nc2ccc(Cl)cc2s1,–
> 6.82,COc1ccc(NC(=O)c2cc(Br)c(Br)s2)cn1,–

# Second part, the molecule before the results:
SMILES,pIC50 [2],inhibition [1]
S=C(NCc1ccc(Cl)cc1)Nc1cccnc1,–,-84.8% (inactive)
S=C(NCc1ccc(Cl)cc1)Nc1ccc(Br)cc1,–,-3.88% (inactive)
O=C1C2=C(Nc3ccccc3SC2c2ccsc2)c2ccccc21 (stereo unspecified),–,7.75% (inactive)
COc1ccccc1NC(=O)N1CCCN(Cc2ccccc2F)C1,–,13.8% (inactive)
CCn1cc(C(=O)O)c(=O)c2cc(F)c(N3CCN(C(=S)Nc4ccccc4Cl)CC3)cc21,4.33,–
COc1cccc(C2Sc3ccccc3NC3=C2C(=O)c2ccccc23)c1 (stereo unspecified),4.11,–
CCn1cc(C(=O)O)c(=O)c2cc(F)c(N3CCN(C(=S)NCc4ccccc4)CC3)cc21,–,-0.39% (inactive)
S=C(NCc1ccccc1Cl)Nc1ccncc1,3.84,–
S=C(NCc1ccc(Cl)cc1)Nc1cccc(Cl)c1,4.23,–
O=C(Nc1ccccc1)N1CCCN(Cc2ccc(F)cc2)C1,–,-3.43% (inactive)
CCn1cc(C(=O)O)c(=O)c2cc(F)c(N3CCN(C(=S)Nc4ccccc4C)CC3)cc21,4.55,–
CCOc1ccc(NC(=S)N2CCN(c3cc4c(cc3F)c(=O)c(C(=O)O)cn4CC)CC2)cc1,5.69,–
O=C1C2=C(Nc3ccccc3SC2c2ccccc2C(F)(F)F)c2ccccc21 (stereo unspecified),–,-23.8% (inactive)
COc1ccccc1Nc1nc(NCc2ccco2)c2ccccc2n1,> 6.82,–
O=C1C2=C(Nc3ccccc3SC2c2ccc(C(F)(F)F)cc2)c2ccccc21 (stereo unspecified),–,-14.5% (inactive)
CCn1cc(C(=O)O)c(=O)c2cc(F)c(N3CCN(C(=S)Nc4ccc(Cl)cc4)CC3)cc21,–,-15% (inactive)
O=C(Nc1ccccc1)N1CCCN(Cc2ccccc2F)C1,–,-140% (inactive)

SMILES,pIC50 [2],inhibition [1]
CCCCCNC(=O)c1cn(CC)c2cc(N3CCN(C)CC3)c(F)cc2c1=O,> 6.82,–
O=S(=O)(Nc1c(S(=O)(=O)c2ccccc2)c2nc3ccccc3nc2n1C1CCCCC1)c1ccccc1,> 6.82,–
O=C(Nc1ccc(Cl)cc1)N1CCCN(Cc2ccc(F)cc2)C1,–,-86.3% (inactive)
Cc1cccc(NC(=S)NCc2ccc(Cl)cc2)c1,–,18.9% (inactive)
O=c1c2ccccc2[nH]c2ccc(F)cc12,> 6.82,–
O=C(Nc1ccc(Br)cc1)N1CCCN(Cc2ccccc2F)C1,–,-62.1% (inactive)
C1=C(CCNc2ncnc3c2[nH]c2ccccc23)CCCC1,> 6.82,–
COc1ccc(NC(=S)NCc2ccc(Cl)cc2)cc1,–,1.77% (inactive)
O=C(Nc1cccnc1)c1cc(Br)c(Br)s1,> 6.82,–
CCn1cc(C(=O)O)c(=O)c2cc(F)c(N3CCN(C(=S)NC)CC3)cc21,–,-22.9% (inactive)
Cc1ccc(CN2CCCN(C(=O)Nc3ccc(Cl)cc3)C2)cc1,–,17.3% (inactive)
O=C1C2=C(Nc3ccccc3SC2c2ccc(I)cc2)c2ccccc21 (stereo unspecified),3.88,–
Cc1ccc(NC(=S)NCc2ccc(Cl)cc2)cc1,–,26.1% (inactive)
O=C(Nc1ccccc1Cl)N1CCCN(Cc2ccccc2F)C1,–,-64.3% (inactive)
Fc1ccccc1NC(=S)NCc1ccc(Cl)cc1,–,-10.3% (inactive)
O=C(NCc1ccccc1)N1CCCN(Cc2ccccc2F)C1,–,-78.3% (inactive)
COc1cccc(NC(=S)NCc2ccc(Cl)cc2)c1,–,2.44% (inactive)
